This assay deals with 4T1-luc2 mouse breast cancer cells. The experiment in a line: dry-ice dead-cells-assay (in vitro model of cryo-induced cell death). In kind it is cell-based. Particulars: for binding to dead cells: dead vs living cells. The procedure: The dead cell targeting properties of seven HQ medical compounds (HQ1-7) were assessed in a newly developed in vitro assay of living and dead 4T1-luc2 mouse breast cancer cells. For this 4T1-luc2 cells were cultured to confluence in 12-well plates and a local area of cell death was induced by applying a bar of dry ice to the bottom of the culture well. Subsequently, the cells were incubated with the test compounds, washed and imaged with the Lycor Odyssey.
4T1-Luc cells were seeded onto individual wells from a 12-well cell culture plate and allowed to grow to confluence in RPMI media supplemented with 10% fetal bovine serum. 4T1-luc2 mouse breast cancer cells were used as the adherence of these cells to the bottom of the culture well remains strong after dry-ice treatment. To initiate cryo-induced cell death, media was discarded and dry-ice was applied to the bottom center of each individual well for 15 sec. Subsequently, fresh medium with different concentrations of the HQ medical compounds (HQ1-7) were added and cells were incubated at 37° C. for 15 min. After incubation, the media were discarded and the cells were washed twice with serum free medium and 0.5 ml fresh RPMI was added to each well. Cells were then visualized using a Licor Odyssey equipped with 700 and 800 nm diode laser. Luciferin ([…]) was also added to each well and fluorescence and bioluminescence images were acquired using an IVIS Spectrum (fluorescence: excitation filter: 710 nm, emission filter: 820 nm, exposure time: 90 s, bin: 8, f/stop: 2, field of view: 12.9 cm) (bioluminescence: open filter, exposure time: 30 s, bin: 8, f/stop: 1, field of view: 12.9 cm). Some culture wells were also stained for 15 min with Trypan Blue (0.2% in culture medium) to confirm cell death.
Confluent cultures of 4T1-luc2 breast cancer cells were treated for 15 sec with a focal application of dry-ice to the bottom center of a culture well and were used to examine the dead cell binding properties of the seven HQ medical NIRF compounds. First, however, in order to confirm the presence of a local area of dead cells, the dry-ice treated cultures were incubated with Trypan blue or were treated with luciferin and measured for bioluminescence.
HQ medical #1-7 were examined for their imaging potential of dead cells in the present dry-ice dead-cells-assay. The cells were incubated with the HQ medical compounds with concentrations ranging from 0.5 to 0.001 uM. HQ medical #4-7, all specifically bound to dead cells (FIGS. 5A and B). […] For HQ medical #6 and 7, a signal from the dead cell area could be detected at least 50-fold higher concentrations.

Take `CC1(C)C(=CC=C2CCCC(C=CC3=[N+](CCC[N+](C)(C)C)c4ccc(S(=O)(=O)O)cc4C3(C)C)=C2Oc2ccc(CCC(=O)O)cc2)N(CCC[N+](C)(C)C)c2ccc(S(=O)(=O)O)cc21` [ZW800]: the “binding to dead cells” value was “specific binding to dead cells”.
Still for that read-out and setting: the same measure for `CC1(C)C(/C=C/C2=C(Oc3ccc(S(=O)(=O)O)cc3)C(=C/C=C3/N(CCCCS(=O)(=O)O)c4ccc(S(=O)(=O)[O-])cc4C3(C)C)/CCC2)=[N+](CCCCCC(=O)O)c2ccc(S(=O)(=O)O)cc21` [CW 800]: “specific binding to dead cells”.
For `CCN1c2cc3c(cc2C(C)=CC1(C)C)/C(=C/C=C/C=C/C1=[N+](CCCS(=O)(=O)[O-])c2ccc(S(=O)(=O)[O-])cc2C1(C)CCCC(=O)O)C=C(c1ccccc1)O3.[Na+]` (stereo not drawn) [DY-776], the “binding to dead cells” value is listed as “specific binding to dead cells”.
Still for that read-out and setting: the same measure for `CCN1C(=CC=CC=CC=CC2=[N+](CCCCCC(=O)O)c3ccc(S(=O)(=O)O)cc3C2(C)C)C(C)(C)c2cc(S(=O)(=O)[O-])ccc21` [CY7]: “specific binding to dead cells”.
Consider `Cc1cc(-c2ccc(/N=N/c3c(S(=O)(=O)O)cc4cc(S(=O)(=O)O)cc(N)c4c3O)c(C)c2)ccc1/N=N/c1c(S(=O)(=O)O)cc2cc(S(=O)(=O)O)cc(N)c2c1O` [Trypan Blue], for which the “uptake of Trypan Blue at site of focal dry-ice treatment compared to viable cells in the periphery” value (Trypan Blue 0.2% in culture medium, 15 min, FIG. 4A) is “increased uptake”.
For CY5.5, the “binding to dead cells” value is recorded as “specific binding to dead cells”.
Same read-out and setting: the same measure for `CCN1/C(=C/C=C/C=C/C2=[N+](CCCCCC(=O)O)c3ccc(S(=O)(=O)O)cc3C2(C)C)C(C)(C)c2cc(S(=O)(=O)[O-])ccc21` [CY5]: “specific binding to dead cells”; for `CCN1C(=CC=CC2=[N+](CCCCCC(=O)O)c3ccc(S(=O)(=O)O)cc3C2(C)C)C(C)(C)c2cc(S(=O)(=O)[O-])ccc21` [CY3]: “specific binding to dead cells”.
The same measure, in the same setting: the same measure for `CC[N+](CC)=c1ccc2c(C(C)(C)C)cc(/C=C/C=C3/N(CCCS(=O)(=O)[O-])c4ccc(S(=O)(=O)[O-])cc4C3(C)CCCC(=O)O)oc-2c1.[Na+]` (stereo not drawn) [DY-681]: “specific binding to dead cells”; for `CC[N+](CC)=c1ccc2c(/C=C/C=C/C=C3/N(CCCS(=O)(=O)[O-])c4ccc(S(=O)(=O)[O-])cc4C3(C)CCCC(=O)O)cc(C(C)(C)C)oc-2c1.[Na+]` (stereo not drawn) [DY-731]: “specific binding to dead cells”.
The same measure, in the same setting: the same measure for `CCN1c2cc3c(cc2C(C)=CC1(C)C)C(=CC=CC1=[N+](CCCS(=O)(=O)[O-])c2ccc(S(=O)(=O)[O-])cc2C1(C)CCCC(=O)O)C=C(c1ccccc1)O3.[Na+]` (stereo not drawn) [DY-676]: “specific binding to dead cells”; for `CC1(C)C(/C=C/C=C/C=C/C=C2\N(CCCCS(=O)(=O)[O-])c3ccc4ccccc4c3C2(C)C)=[N+](CCCCS(=O)(=O)[O-])c2ccc3ccccc3c21.[Na+]` [ICG]: “specific binding to dead cells”.

(Values after patent US10830770B2, “Cell death assay” (HQ MEDICAL (NETHERLANDS) B.V., priority 2012, dated 2020).)
